Experimental findings from patent US20040224898A1, “Compositions and methods for promoting lipid mobilization in humans” (priority 2002, published 2004) are described below.

What all share (assay type): cell-based
The subject of test [1] is human adipocytes. In words: Release of tritium label from radiolabeled palmitate (lipid mobilizing activity). Conditions: for % Tritium Label Release with Agent: 4 hours, 37° C., Table 6 experiment. The method, then: Lipid mobilizing activity was assessed by assaying release of tritium label from radiolabeled palmitate. This assay was performed by maintaining human pre-adipocytes in Adipocyte Growth Medium (AGM), which is Dulbecco's Modified Eagle's Medium (DMEM) mixed 1:1 by volume with Ham's F-10 medium. Ham's F-10 medium comprises 15 millimolar HEPES buffer adjusted to pH 7.4 and supplemented with biotin, pantothenate, human recombinant insulin, dexamethasone, fungicide, bactericide, and 3% (v/v) fetal bovine serum). Pre-adipocytes differentiated to become mature adipocytes by three weeks of maintenance in AGM. On the day prior to assay, the adipocytes were washed and incubated overnight in Krebs-Ringers buffer comprising 0.1% fatty acid-free bovine serum albumin (BSA) and comprising 1 microCurie per milliliter of tritiated (9,10-^3H) palmitate. The following day, the medium was removed, and the cells were washed three times […]. Isoproterenol (0 to 5×10^−8 molar), Schistocera gregaria AKH II (0 to 5×10^−5 molar), or Krebs-Ringer buffer (with 0.1% fatty acid-free BSA) containing neither of these was added to the cell suspension in a volume of 150 microliters. The suspensions were incubated for 4 hours at 37° C., and then 100 microliters of each sample was subjected to scintillation counting to detect released label in the supernatant. The total amount of label incorporated was determined for each well by solubilizing the cells using 1% sodium dodecyl sulfate and subjecting the entire contents of the well to scintillation counting. Fractional release of label was calculated by dividing the amount of label detected in cell supernatant by the total amount of label detected in the supernatant and in the cells remaining in the well, and percentage release was calculated by multiplying fractional release by 100.
A similar study was done using the same methods, except that cockroach hypertrehalosemic factor (0 to 5×10^−5 molar) was used in place of S. gregaria AKH II.
A similar tritium label release experiment performed using Heliothis zea AKH II and Locusta migratoria, except that a two-hour incubation period was used in place of a 4 hour incubation period.

The subject of test [2] is human adipocytes. In words: Glycerol release assay. The method, then:
(§1) Human pre-adipocytes were isolated by liposuction and maintained in AGM for three weeks in order to permit the pre-adipocytes to differentiate to become mature adipocytes. AGM was removed, and adipocytes were incubated in Krebs-Ringers buffer comprising 0.1% fatty acid-free BSA at 37° C. for five hours in the presence of selected concentrations (10^−9 to 10^−5 molar) of one of Schistocera gregaria AKH II, cockroach hypertrehalosemic factor (obtained from Sigma Chemical Co, St. Louis, Mo., catalog number P0175), and Locusta migratoria AKH I (obtained from American Peptide Co., Sunnyvale, Calif., catalog number 60-9-18). Glycerol released from the adipocytes was assayed using a commercially available kit (GPO-trinder assay kit available form Sigma Chemical Company, St. Louis, Mo.).
A similar experiment was performed, in which glycerol release from adipocytes was assessed in the presence of the Locusta migratoria AKH I or the cockroach hypertrehalosemic factor or in the presence of isoproterenol.

In test [3] the test system is human adipocytes. In words: Effect of propanolol on agent-induced glycerol release. Conditions: agent 10 micromolar. The method, then:
as §1
Glycerol release assays were performed as described in Example 2, except that the assays were performed using single selected concentrations of one of cockroach hypertrehalosemic factor, Locusta migratoria AKH I, and isoproterenol and multiple selected concentrations of propanolol.

With “EVNFSPGWGT (listed as Gromphadorhina portentosa) [cockroach hypertrehalosemic factor, insect AKH family peptide, Sigma Chemical Co. catalog number P0175]”, the “% Tritium Label Release with Agent” value in test [1] (agent 1 × 10^−5 molar) came out at 9.08%; in test [1] (agent 1 × 10^−6 molar) it was 8.77%; in test [1] (agent 1 × 10^−7 molar), 7.17%; in test [1] (agent 1 × 10^−8 molar), 7.24%; in test [1] (agent 1 × 10^−9 molar), 6.88%; in test [1] (agent 1 × 10^−10 molar) it was 7.21%. Also, the “% Tritium Label Release with Agent” value was found to be 9.7% in test [1] (agent 5 × 10^−5 molar), 9.36% in test [1] (agent 5 × 10^−6 molar) and 8.08% in test [1] (agent 5 × 10^−7 molar). In addition, the “Ability to mobilize lipids in adipocytes” value in test [1] (conclusion of Example 1, murine adipocytes) is listed as “able to mobilize lipids”. Also, the “Glycerol Release with Agent (medium concentration in millimolar)” value (shortened to “Glycerol Release with Agent”) in test [2] (agent 1 × 10^−5, Table 9 experiment) is recorded as 0.1515 ± 0.0155 millimolar; in test [2] (agent 1 × 10^−5 molar, five hours, 37° C., Table 8 experiment) it was 1.124 millimolar; in test [2] (agent 1 × 10^−6, Table 9 experiment), 0.1216 ± 0.0103 millimolar; in test [2] (agent 1 × 10^−6 molar, five hours, 37° C., Table 8 experiment), 0.555 millimolar; in test [2] (agent 1 × 10^−7, Table 9 experiment), 0.0944 ± 0.00166 millimolar; in test [2] (agent 1 × 10^−7 molar, five hours, 37° C., Table 8 experiment), 0.527 millimolar. The “Glycerol Release with Agent” value was determined as 0.0817 ± 0.0113 millimolar in test [2] (agent 1 × 10^−8, Table 9 experiment); 0.451 millimolar in test [2] (agent 1 × 10^−8 molar, five hours, 37° C., Table 8 experiment); 0.603 millimolar in test [2] (agent 1 × 10^−9 molar, five hours, 37° C., Table 8 experiment); 0.1515 ± 0.0155 millimolar in test [3] (propanolol 0 molar); 0.2033 ± 0.0134 millimolar in test [3] (propanolol 1 × 10^−5 molar); 0.1370 ± 0.0170 millimolar in test [3] (propanolol 1 × 10^−6 molar). Moreover, the “Glycerol Release with Agent” value in test [3] (propanolol 1 × 10^−7 molar) is given as 0.1161 ± 0.0232 millimolar. Also, the “Ability to promote lipid mobilization in human adipocytes” value in test [2] (conclusion of Example 2) was “able to promote lipid mobilization”.
